Laboratory results published in ChEMBL document CHEMBL2440098, “Binding mode characterization of 6α- and 6β-N-heterocyclic substituted naltrexamine derivatives via docking in opioid receptor crystal structures and site-directed mutagenesis studies: application of the 'message-address' concept in development of mu opioid receptor selective antagonists” (Bioorg Med Chem, 2013).

How the values were obtained:
[1] = Binding affinity to MOR Y210A mutant (unknown origin) expressed in CHO cells after 15 mins by Ca2+ mobilization assay; type: cell-based, Homo sapiens
Mu-type opioid receptor [2] = target: T1, Mu-type opioid receptor (Homo sapiens, UniProt P35372); experiment: Binding affinity to wild type MOR (unknown origin) expressed in CHO cells after 15 mins by Ca2+ mobilization assay; type: cell-based
Mu-type opioid receptor [3] = target: T1, Mu-type opioid receptor

T1 sequence (P35372 whole entry): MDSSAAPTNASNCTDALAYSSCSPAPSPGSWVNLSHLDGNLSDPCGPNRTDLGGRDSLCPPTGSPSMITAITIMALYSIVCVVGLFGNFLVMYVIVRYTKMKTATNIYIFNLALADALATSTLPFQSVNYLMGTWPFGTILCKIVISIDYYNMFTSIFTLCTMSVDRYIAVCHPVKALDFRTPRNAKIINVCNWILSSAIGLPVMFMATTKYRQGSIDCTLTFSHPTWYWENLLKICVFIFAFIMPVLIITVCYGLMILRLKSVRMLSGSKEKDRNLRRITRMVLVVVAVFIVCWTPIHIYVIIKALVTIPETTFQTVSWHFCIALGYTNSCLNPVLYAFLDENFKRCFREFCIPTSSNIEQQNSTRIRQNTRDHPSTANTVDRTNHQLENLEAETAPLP

O=C(N[C@H]1CC[C@@]2(O)[C@H]3Cc4ccc(O)c5c4[C@@]2(CCN3CC2CC2)[C@H]1O5)c1cc2ccccc2cn1
IC50 [1]: 3.31 nM | Ki [1]: 1.57 nM | Ki (Mu-type opioid receptor [2]): 2.57 nM | IC50 (Mu-type opioid receptor [3]): 150 nM
